Results reported in the supplement of paper PMC10307832.

Legend:
Assay in all cases: relative viability (nuclei count vs DMSO), 5 days (fraction); higher = more cells survive
Kobe2602 + OSI-027 = compound: C1=CC(=CC=C1NC(=S)NNC2=C(C=C(C=C2[N+](=O)[O-])C(F)(F)F)[N+](=O)[O-])F [Kobe2602] + COc1cccc2cc(-c3nc([C@H]4CC[C@H](C(=O)O)CC4)n4ncnc(N)c34)[nH]c12 [OSI-027] (partner 0.5 µM)
Summary of the method: (§1)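 The day after seeding in 1536-well plates, lung cancer cell lines were treated by pin tool with a single drug, or with a fixed anchor-drug dose together with five library-drug doses (not always all listed) in √10 steps. After 5 days, a combined fix-and-stain solution (final 0.05% Triton X-100, 1% formaldehyde, 1 ug/ml Hoechst) was added. Nuclei counted on 4× images gave relative viability as treated counts over vehicle counts, reported as the median of duplicate plates.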

Kobe2602 + Crizotinib = compound: C1=CC(=CC=C1NC(=S)NNC2=C(C=C(C=C2[N+](=O)[O-])C(F)(F)F)[N+](=O)[O-])F [Kobe2602] + C[C@@H](Oc1cc(-c2cnn(C3CCNCC3)c2)cnc1N)c1c(Cl)ccc(F)c1Cl [Crizotinib] (partner 1 µM)
Summary of the method: as §1

Kobe2602 + Decitabine = compound: C1=CC(=CC=C1NC(=S)NNC2=C(C=C(C=C2[N+](=O)[O-])C(F)(F)F)[N+](=O)[O-])F [Kobe2602] + Nc1ncn([C@H]2C[C@H](O)[C@@H](CO)O2)c(=O)n1 [Decitabine] (partner 2 µM)
Summary of the method: as §1

Zosuquidar + Palbociclib = compound: O[C@@H](COc1cccc2ncccc12)CN1CCN([C@@H]2c3ccccc3[C@@H]3[C@H](c4ccccc42)C3(F)F)CC1 [Zosuquidar] + CC(=O)c1c(C)c2cnc(Nc3ccc(N4CCNCC4)cn3)nc2n(C2CCCC2)c1=O [Palbociclib] (partner 0.5 µM)
Summary of the method: as §1

## UMC-11
Kobe2602 + OSI-027; first compound 0.2 µM
  relative viability: 0.461
Kobe2602 + OSI-027; first compound 0.6325 µM
  relative viability: 0.537
Kobe2602 + OSI-027; first compound 2 µM
  relative viability: 0.539
Kobe2602 + OSI-027; first compound 6.325 µM
  relative viability: 0.459
Kobe2602 + OSI-027; first compound 20 µM
  relative viability: 0.467
Kobe2602 + Crizotinib; first compound 0.2 µM
  relative viability: 0.578
Kobe2602 + Crizotinib; first compound 0.6325 µM
  relative viability: 0.545
Kobe2602 + Crizotinib; first compound 2 µM
  relative viability: 0.672
Kobe2602 + Crizotinib; first compound 6.325 µM
  relative viability: 0.619
Kobe2602 + Crizotinib; first compound 20 µM
  relative viability: 0.639
Kobe2602 + Decitabine; first compound 0.2 µM
  relative viability: 0.564
Kobe2602 + Decitabine; first compound 0.6325 µM
  relative viability: 0.622
Kobe2602 + Decitabine; first compound 2 µM
  relative viability: 0.675
Kobe2602 + Decitabine; first compound 6.325 µM
  relative viability: 0.466
Kobe2602 + Decitabine; first compound 20 µM
  relative viability: 0.652
Zosuquidar + Palbociclib; first compound 0.01 µM
  relative viability: 0.313
Zosuquidar + Palbociclib; first compound 0.03162 µM
  relative viability: 0.305
Zosuquidar + Palbociclib; first compound 0.1 µM
  relative viability: 0.338
Zosuquidar + Palbociclib; first compound 0.3162 µM
  relative viability: 0.341
Zosuquidar + Palbociclib; first compound 1 µM
  relative viability: 0.296
